Test results published in patent US20220163532A1, “NUCLEAR-DERIVED EXOSOMES AND METHODS OF USE THEREOF” (Board of Regents, The University of Texas System, priority 2019, published 2022).

Tests used:
Type in all cases: cell-based, human
[1] = test system: OVCAR-5 and OVCAR-8 cells; experiment: MN quantification in ovarian cancer cells treated with genotoxic drugs (IF, Lamin A/C); conditions: topotecan 10 nM or olaparib 20 μM, vs DMSO
Method: IF experiments and MN quantification. Cells were plated at a density of 5×10^4 cells on sterile, 0.17-mm-thick coverslips (12-548-A, Thermo Fisher Scientific) placed at the bottom of six-well plates. The next day, cells were treated for 24 hours with either vehicle control dimethyl sulfoxide (DMSO; 1:1000 dilution; D2650, Sigma-Aldrich), 20 μM olaparib (O-9201, LC Laboratories), or 10 nM topotecan (T2705-50MG, Sigma-Aldrich). After 24 hours, the cells were washed with PBS and refed with the appropriate cell culture medium to grow for another 48 hours, for a total time of 72 hours after initial plating on the coverslips.
The drug-treated cells were first washed three times with PBS, fixed with 4% paraformaldehyde (PFA; 50-980-487, Thermo Fisher Scientific) diluted in PBS, and incubated at RT for 15 min with light rocking. […] Last, cells on coverslips were then washed four times with PBS and mounted on slides using ProLong Diamond Antifade Mountant (P36961, Thermo Fisher Scientific) and imaged with a Leica fluorescence microscope (Leica DM4000 M LED; Leica Microsystems) or an Andor Revolution XDi WD Spinning Disk Confocal microscope. For MN quantification, the number of MN in each 40× field was counted using 10 fields per sample. […]

[2] = test system: OVCAR-5 and OVCAR-8 cells; experiment: DNA-positive exosomes (nExo) from drug-treated ovarian cancer cells by imaging flow cytometry; conditions: topotecan 10 nM or olaparib 20 μM, parental cells treated 48 hours, vs DMSO
Method: (§1) Isolation of exosomes. The isolation method for exosomes that was used in this study followed the standard methods of the International Society of Extracellular Vesicles (Witwer et al., 2013). Cell lines described above were grown in the corresponding medium described above until 60 to 70% confluence was achieved. Cells were then washed twice with phosphate-buffered saline (PBS) and grown in corresponding medium containing 1% exosome-free FBS (EXO-FBS-250A-1, System Biosciences) plus 0.1% gentamicin for 48 hours. For exosome isolation, the harvested medium underwent serial centrifugation. First, the medium was spun down at 500g for 10 min to pellet any floating cells. Next, the supernatant was collected and spun down at 2000g for 30 min to pellet any residual cell debris. The resulting supernatant was then filtered through a 0.22-μm filter (SCGPUO5RE and SLGP033RS, Millipore-Sigma) to remove any remaining large vesicles. […] Exosome concentration and quantity were determined using NTA with a NanoSight NS300 instrument (Malvern Panalytical).
Exosome staining for imaging flow cytometry and analysis. For quantitative analysis and imaging flow cytometry of exosomes, the method described by Erdbrugger et al. (2014) using an Amnis ImageStreamX MarkII analyzer was adapted. […]

ovarian cancer cells = experiment: Nuclear proteins in exosomes from drug-treated ovarian cancer cells (Western blot); conditions: topotecan 10 nM or olaparib 20 μM
Method: as §1, with “vesicles. After filtration, the medium was spun down at 40,000 rpm for 2 hours at 4° C. in an ultracentrifuge (Optima XE, Beckman Coulter) with a Ti 45 fixed-angle rotor (339160, Beckman Coulter).” for “vesicles.”
Western blotting. […] Protein concentration was determined using the Micro BCA Protein Assay Kit (23235, Thermo Fisher Scientific) according to the manufacturer's protocol. […]

With `O=C(c1cc(Cc2n[nH]c(=O)c3ccccc23)ccc1F)N1CCN(C(=O)C2CC2)CC1` [olaparib] the “number of MN” value [1] was “increased significantly”, the “population of exosomes containing gDNA (proportion of nExo secreted)” value [2] was “increased” and the “population of exosomes containing nuclear proteins” value (ovarian cancer cells) was “increased”.
